In patent US8242145B2, “Cyclic diaryl ether compounds as antagonists of prostaglandin D2 receptors” (Panmira Pharmaceuticals, LLC, priority 2008, dated 2012):

Key:
human DP1 receptor = biological target: T1, human DP1 receptor (Homo sapiens, UniProt Q13258); experiment: DP1 radioligand binding assay using [3H]BWA868C; details: hDP1 binding
T1 construct: tissue Biological Specialty Corporation; host or cells: human platelets, membranes
T1 sequence (Q13258 1-359): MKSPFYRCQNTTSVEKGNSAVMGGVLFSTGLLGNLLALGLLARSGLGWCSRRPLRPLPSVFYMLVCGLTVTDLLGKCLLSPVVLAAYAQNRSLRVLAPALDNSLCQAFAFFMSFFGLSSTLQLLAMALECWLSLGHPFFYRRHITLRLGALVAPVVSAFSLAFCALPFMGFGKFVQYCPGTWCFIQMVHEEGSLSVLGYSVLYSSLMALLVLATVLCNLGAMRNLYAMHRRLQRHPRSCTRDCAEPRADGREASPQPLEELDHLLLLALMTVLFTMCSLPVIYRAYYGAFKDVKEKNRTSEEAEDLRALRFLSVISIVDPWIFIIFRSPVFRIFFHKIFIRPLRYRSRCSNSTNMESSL
In short: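 Human platelet membranes (20 μg protein/well) incubated 60 min at room temperature with 2 nM [3H]BWA868C in 50 mM Hepes, 10 mM MnCl2, 1 mM EDTA, ±0.2% human serum albumin, pH 7.4. Bound label measured after filtration; nonspecific binding defined with 10 μM BW A868C. IC50 from titration curves.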

[1] = biological target: T2, recombinant human CRTH2 receptor (Homo sapiens, UniProt Q9Y5Y4); experiment: GTPγS binding assay; assay type: biochemical; details: +HSA; read-out: hDP2 GTPγS μM (+HSA)
T2 construct: expressed in transfected cells
T2 sequence (Q9Y5Y4 1-395): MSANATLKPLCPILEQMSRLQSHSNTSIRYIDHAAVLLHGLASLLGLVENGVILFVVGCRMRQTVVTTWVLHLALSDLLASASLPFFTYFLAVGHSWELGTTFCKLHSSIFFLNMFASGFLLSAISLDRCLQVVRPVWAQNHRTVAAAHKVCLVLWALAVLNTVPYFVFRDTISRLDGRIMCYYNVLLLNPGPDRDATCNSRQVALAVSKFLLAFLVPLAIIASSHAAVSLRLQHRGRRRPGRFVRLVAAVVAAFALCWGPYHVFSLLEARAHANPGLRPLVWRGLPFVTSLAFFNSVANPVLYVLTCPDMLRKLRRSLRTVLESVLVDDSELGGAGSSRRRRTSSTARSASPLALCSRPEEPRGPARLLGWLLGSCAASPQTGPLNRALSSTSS
In short: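 Membranes from CHO cells stably expressing recombinant receptor (~12.5 μg/well), incubated 60 min at 30° C with 0.05 nM [^35S]-GTPγS, 80 nM PGD2, 5 μM GDP in pH 7.4 Hepes buffer with 0.2% human serum albumin. Filter-bound radioactivity counted; specific binding = total minus binding without PGD2; IC50 from titration curves.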

human DP2 receptor = biological target: T3, human DP2 receptor (Homo sapiens, UniProt Q9Y5Y4); experiment: DP2/CRTH2 radioligand binding assay using [3H]PGD2; details: hDP2 (CRTH2) binding assay
T3 construct: expressed in transfected cells
T3 sequence (Q9Y5Y4 1-395): T2 sequence (Q9Y5Y4 1-395)
In short: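 HEK293 membranes with stable recombinant human DP2, incubated with 1 nM [3H]PGD2 and compound 60 min at room temperature in pH 7.4 HEPES/MnCl2/EDTA buffer, with or without 0.2% human serum albumin.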

SMILES	IC50 (human DP1 receptor)	IC50 [1]	IC50 (human DP2 receptor)
CS(=O)(=O)c1ccc(-c2ccc(Oc3cccc(CC(=O)O)c3)c(CN3CCOC3=O)c2)cc1 [Compound 1-85, {3-[4′-Methanesulfonyl-3-(2-oxo-oxazolidin-3-ylmethyl)-biphenyl-4-yloxy]-phenyl}-acetic acid]	> 1000 nM	0.3 to 1 µM	< 300 nM
C[C@@H]1[C@H](c2ccccc2)OC(=O)N1Cc1cc(C(F)(F)F)ccc1Oc1cc(CC(=O)O)ccc1-c1cnn(C)c1 [Compound 1-79, [3-[2-((4R,5S)-4-Methyl-2-oxo-5-phenyl-oxazolidin-3-ylmethyl)-4-trifluoromethyl-phenoxy]-4-(1-methyl-1H-pyrazol-4-yl)-phenyl]-acetic acid]	> 1000 nM	< 0.3 µM	< 300 nM
C[C@@H]1[C@H](c2ccccc2)OC(=O)N1Cc1cc(Br)ccc1Oc1cc(F)cc(CC(=O)O)c1 [Compound 1-55, {3-[4-Bromo-2-((4R,5S)-4-methyl-2-oxo-5-phenyl-oxazolidin-3-ylmethyl)-phenoxy]-5-fluoro-phenyl}-acetic acid]	> 1000 nM	< 0.3 µM	< 300 nM
O=C(O)Cc1cccc(Oc2ccc(Br)cc2CN2C(=O)OC[C@@H]2Cc2ccccc2)c1 [Compound 1-46, {3-[2-((S)-4-Benzyl-2-oxo-oxazolidin-3-ylmethyl)-4-bromo-phenoxy]-phenyl}-acetic acid]	> 1000 nM	< 0.3 µM	< 300 nM
C[C@@H]1[C@H](c2ccccc2)OC(=O)N1Cc1cc(Br)ccc1Oc1cc(CC(=O)O)ccc1Cl [Compound 1-58, {3-[4-Bromo-2-((4R,5S)-4-methyl-2-oxo-5-phenyl-oxazolidin-3-ylmethyl)-phenoxy]-4-chloro-phenyl}-acetic acid]	> 1000 nM	0.3 to 1 µM	< 300 nM
C[C@H]1[C@@H](c2cc(C(F)(F)F)cc(C(F)(F)F)c2)OC(=O)N1Cc1cc(Br)ccc1Oc1cccc(CC(=O)O)c1 [Compound 1-18, (3-{2-[(4S,5R)-5-(3,5-Bis-trifluoromethyl-phenyl)-4-methyl-2-oxo-oxazolidin-3-ylmethyl]-4-bromo-phenoxy}-phenyl)-acetic acid]	< 300 nM	< 0.3 µM	< 300 nM
COc1ccc(CC(=O)O)cc1Oc1ccc(Cl)cc1CN1C(=O)O[C@H](c2ccccc2)[C@@H]1C [Compound 1-31, {3-[4-Chloro-2-((4S,5R)-4-methyl-2-oxo-5-phenyl-oxazolidin-3-ylmethyl)-phenoxy]-4-methoxy-phenyl}-acetic acid]	> 1000 nM	< 0.3 µM	< 300 nM
COc1ccc(CC(=O)O)cc1Oc1ccc(-c2ccc(F)cc2)cc1CN1C(=O)O[C@H](c2ccccc2)[C@@H]1C [Compound 1-36, {3-[4′-Fluoro-3-((4S,5R)-4-methyl-2-oxo-5-phenyl-oxazolidin-3-ylmethyl)-biphenyl-4-yloxy]-4-methoxy-phenyl}-acetic acid]	> 1000 nM	> 1 µM	< 300 nM
O=C(O)Cc1cccc(Oc2ccc(Br)cc2CN2CCOC2=O)c1 [Compound 1-3, {3-[4-Bromo-2-(2-oxo-oxazolidin-3-ylmethyl)-phenoxy]-phenyl}-acetic acid]	> 1000 nM	0.3 to 1 µM	< 300 nM
O=C(O)Cc1cccc(Oc2ccc(Br)cc2CN2C[C@H](c3ccccc3)OC2=O)c1 [Compound 1-48, {3-[4-Bromo-2-((S)-2-oxo-5-phenyl-oxazolidin-3-ylmethyl)-phenoxy]-phenyl}-acetic acid]	300 to 1000 nM	> 1 µM	< 300 nM
COc1ccc(CC(=O)O)cc1Oc1ccc(-c2ccccc2OC)cc1CN1C(=O)O[C@H](c2ccccc2)[C@@H]1C [Compound 1-37, {4-Methoxy-3-[2′-methoxy-3-((4S,5R)-4-methyl-2-oxo-5-phenyl-oxazolidin-3-ylmethyl)-biphenyl-4-yloxy]-phenyl}-acetic acid]	> 1000 nM	< 0.3 µM	< 300 nM
